In patent publication US20260250250A1, “3-(SULPHONYL OR SULFONIMIDOYL)PROP-2-EN-1-YL]-2-OXO-1,2-DIHYDROPYRIDINE-3-CARBOXAMIDE DERIVATIVES” (Flinder Therapeutics B.V., priority 2022, published 2026) one finds IC50 data, which are given here for 21 compounds.

Experiment [1] concerns the target T1, human E3 ubiquitin-protein ligase RNF31 (HOIP) (Homo sapiens, UniProt Q96EP0).
T1 sequence (Q96EP0 695-1072 limits assumed): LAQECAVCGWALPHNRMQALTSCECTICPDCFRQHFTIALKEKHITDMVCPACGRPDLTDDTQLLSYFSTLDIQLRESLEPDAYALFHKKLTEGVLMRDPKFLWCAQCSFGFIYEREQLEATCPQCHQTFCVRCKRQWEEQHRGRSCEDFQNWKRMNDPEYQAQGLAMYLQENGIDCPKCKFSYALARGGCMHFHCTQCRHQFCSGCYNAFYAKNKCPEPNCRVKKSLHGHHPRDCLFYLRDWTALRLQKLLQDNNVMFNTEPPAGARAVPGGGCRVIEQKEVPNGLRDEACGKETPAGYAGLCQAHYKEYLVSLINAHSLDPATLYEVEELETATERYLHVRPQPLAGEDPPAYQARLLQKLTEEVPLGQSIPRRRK
Nature of the experiment: Cell-free HTRF-based HOIP inhibition assay. Type of experiment: biochemical. As for the experimental part:
This assay was performed in the following steps: • a) synthesis of recombinant fragment of human E3 ubiquitin-protein ligase RNF31 (HOIP), expressed with purity >90% in E. coli system (the protein was prepared as 1 mg/mL stock in a standard formulation); • b) incubation of the compounds in a typical concentration range: 100-0.005 μM, at a final DMSO conc. 1% with a mixture of HOIP and ubiquitin activating enzyme E1 at 25° C., for 1 h at 25° C.; • c) followed by addition of a ubiquitination solution including E2 and substrates (the reaction proceeds for 2.5 h at 25° C.); and • d) HTRF detection was performed using a PHERAstar FSX (BMG Labtech) plate reader (excitation at 337 nm, dual emissions at 665 and 620 nm).
Background: TR-FRET usually uses a lanthanide donor and a delayed reading to cut background.

Experiment [2] has as its system bladder carcinoma RT4 cell line. Nature of the experiment: TNF-α-induced cytotoxicity assay (CellTiter-Glo viability). Type of experiment: cell-based. The settings on record: Homo sapiens, RT-4, 72 h. The procedure: A viability assay, using bladder carcinoma RT4 cell line, was used for identifying the potential inhibitory effect of tested compounds on HOIP activity. The viability was determined by CellTiter-Glo Luminescent Cell Viability Assay (G7571, Promega) which measures the ability of generating a luminescent signal proportional to the amount of ATP present in living cells. The assay consists of a few steps: • a) the cells were routinely sub cultivated twice a week with standard complete growth medium composition; • b) cells were preparated for the assay by creating a cell suspension at the density of 0.05 mln cells/mL and dispensed into plates (ViewPlate-384, PerkinElmer) resulting in 1000 cells/well; • c) cells were stimulated with 1.25 ng/mL TNFα and with compounds and incubated for 72 h at 37° C. in the atmosphere with 5% CO2; and • d) for detection cytotoxicity was measured with CellTiter-Glo® Luminescent Cell Viability Assay based on the method described by the manufacturer.
(In general: ATP-based viability assays read luminescence as a measure of living cells.)

Molecules are shown by their SMILES. pIC50: −log10 of the molar value.

The term pIC50 denotes −log10 of the IC50, conventionally taken in molar units. A lower pIC50 goes with a high IC50. On to `N=S(=O)(/C=C/CNC(=O)c1cc2c([nH]c1=O)CCCC2)c1ccc(-c2ccccc2)cc1` (stereo not drawn) [Example 156, N-[(2E)-3-({[1,1′-biphenyl]-4-yl}(imino)oxo-λ^6-sulfanyl)prop-2-en-1-yl]-2-oxo-1,2,5,6,7,8-hexahydroquinoline-3-carboxamide], for which the negative-log IC50 (pIC50) in experiment [1] was ≥ 7.00; in experiment [2] it was ≥ 6.00.

Turning to `COc1ccc(S(=N)(=O)/C=C/CNC(=O)c2cc3cccnc3[nH]c2=O)cc1F` (stereo not drawn) [Example 158, N-[(2E)-3-[(3-fluoro-4-methoxyphenyl)(imino)oxo-λ^6-sulfanyl]prop-2-en-1-yl]-2-oxo-1,2-dihydro-1,8-naphthyridine-3-carboxamide], the negative-log IC50 (pIC50) in experiment [1] was ≥ 6.00; in experiment [2], ≥ 5.00.

Turning to `COc1ccc(S(=N)(=O)/C=C/CNC(=O)c2cc3cnccc3[nH]c2=O)cc1F` (stereo not drawn) [Example 159, N-[(2E)-3-[(3-fluoro-4-methoxyphenyl)(imino)oxo-λ^6-sulfanyl]prop-2-en-1-yl]-2-oxo-1,2-dihydro-1,6-naphthyridine-3-carboxamide], the pIC50 in experiment [1] was ≥ 6.00; in experiment [2], ≥ 4.00.

With `N=S(=O)(/C=C/CNC(=O)c1cc2c([nH]c1=O)CCCC2)c1ccc(N2CCOCC2)cc1` (stereo not drawn) [Example 160, N-[(2E)-3-{imino[4-(morpholin-4-yl)phenyl]oxo-λ^6-sulfanyl}prop-2-en-1-yl]-2-oxo-1,2,5,6,7,8-hexahydroquinoline-3-carboxamide], the pIC50 in experiment [1] and in experiment [2] was ≥ 6.00 throughout.

`N=S(=O)(/C=C/CNC(=O)c1cc2c([nH]c1=O)CCCC2)c1ccc(N2CCCC2)cc1` (stereo not drawn) [Example 162, N-[(2E)-3-[imino(oxo)[4-(Pyrrolidin-1-yl)phenyl]-λ^6-sulfanyl]prop-2-en-1-yl]-2-oxo-1,2,5,6,7,8-hexahydroquinoline-3-carboxamide]: the pIC50 in experiment [1] is ≥ 7.00; in experiment [2], ≥ 6.00.

In the case of `CC(=O)Nc1ccc(S(=N)(=O)/C=C/CNC(=O)c2cc3c([nH]c2=O)CCCC3)cc1` (stereo not drawn) [Example 163, N-[(2E)-3-[(4-acetamidophenyl)(imino)oxo-λ^6-sulfanyl]prop-2-en-1-yl]-2-oxo-1,2,5,6,7,8-hexahydroquinoline-3-carboxamide], the figures for the negative logarithm of the IC50 (pIC50) in experiment [1] and in experiment [2] were ≥ 6.00 and ≥ 4.00, respectively.

Turning to `N=S(=O)(/C=C/CNC(=O)c1cc2c([nH]c1=O)CCCC2)c1ccc(OC2CC2)cc1` (stereo not drawn) [Example 164, N-[(2E)-3-[(4-cyclopropoxyphenyl)(imino)oxo-λ^6-sulfanyl]prop-2-en-1-yl]-2-oxo-1,2,5,6,7,8-hexahydroquinoline-3-carboxamide], the pIC50 is ≥ 7.00 in experiment [1] and ≥ 6.00 in experiment [2].

With `CN(C)c1cccc(S(=N)(=O)/C=C/CNC(=O)c2cc3c([nH]c2=O)CCCC3)c1` (stereo not drawn) [Example 165, N-[(2E)-3-{[3-(dimethylamino)phenyl](imino)oxo-λ^6-sulfanyl}prop-2-en-1-yl]-2-oxo-1,2,5,6,7,8-hexahydroquinoline-3-carboxamide], the pIC50 in experiment [1] and in experiment [2] was ≥ 6.00 each time.

In the case of `N=S(=O)(/C=C/CNC(=O)c1cc2c([nH]c1=O)CCCC2)c1ccc(C2CCCCC2)cc1` (stereo not drawn) [Example 166, N-[(2E)-3-[(4-cyclohexylphenyl)(imino)oxo-λ^6-sulfanyl]prop-2-en-1-yl]-2-oxo-1,2,5,6,7,8-hexahydroquinoline-3-carboxamide], the negative logarithm of the IC50 (pIC50) is ≥ 7.00 in experiment [1] and ≥ 6.00 in experiment [2].

In the case of `N=S(=O)(/C=C/CNC(=O)c1cc2c([nH]c1=O)CCCC2)c1ccc2c(c1)CCO2` (stereo not drawn) [Example 167, N-[(2E)-3-[(2,3-dihydro-1-benzofuran-5-yl)(imino)oxo-λ^6-sulfanyl]Prop-2-en-1-yl]-2-oxo-1,2,5,6,7,8-hexahydroquinoline-3-carboxamide], the negative logarithm of the IC50 (pIC50) in experiment [1] and in experiment [2] was ≥ 6.00 each time.

For `N=S(=O)(/C=C/CNC(=O)c1cc2c([nH]c1=O)CCCC2)c1cccc(OC(F)(F)F)c1` (stereo not drawn) [Example 168, N-[(2E)-3-[imino(oxo)[3-(trifluoromethoxy)phenyl]-λ^6-sulfanyl]prop-2-en-1-yl]-2-oxo-1,2,5,6,7,8-hexahydroquinoline-3-carboxamide], the pIC50 in experiment [1] was ≥ 7.00; in experiment [2], ≥ 6.00.

Turning to `COc1ccc(CN2CCc3[nH]c(=O)c(C(=O)NC/C=C/S(=N)(=O)c4ccc(OC)c(F)c4)cc3C2)cc1` (stereo not drawn) [Example 171, N-[(2E)-3-[(3-fluoro-4-methoxyphenyl)(imino)oxo-λ^6-sulfanyl]prop-2-en-1-yl]-6-[(4-methoxyphenyl)methyl]-2-oxo-1,2,5,6,7,8-hexahydro-1,6-naphthyridine-3-carboxamide], the pIC50 in experiment [1] and in experiment [2] was ≥ 6.00 in each case.

`COc1ccc(S(=N)(=O)/C=C/CNC(=O)c2cc3c([nH]c2=O)CCC(F)C3)cc1F` (stereo not drawn) [Example 172, 6-fluoro-N-[(2E)-3-[(3-fluoro-4-methoxyphenyl)(imino)oxo-λ^6-sulfanyl]prop-2-en-1-yl]-2-oxo-1,2,5,6,7,8-hexahydroquinoline-3-carboxamide]: the negative-log IC50 (pIC50) in experiment [1] was ≥ 6.00; in experiment [2], ≥ 5.00.

Regarding `N#Cc1cc(S(=N)(=O)/C=C/CNC(=O)c2cc3c([nH]c2=O)CCCC3)ccc1N1CCCCC1` (stereo not drawn) [Example 173, N-[(2E)-3-{[3-cyano-4-(piperidin-1-yl)phenyl](imino)oxo-λ^6-sulfanyl}prop-2-en-1-yl]-2-oxo-1,2,5,6,7,8-hexahydroquinoline-3-carboxamide], the figures for the negative logarithm of the IC50 (pIC50) in experiment [1] and in experiment [2] were ≥ 7.00 and ≥ 6.00, respectively.

In the case of `CNc1ccc(S(=N)(=O)/C=C/CNC(=O)c2cc3c([nH]c2=O)CCCC3)cc1` (stereo not drawn) [Example 174, N-[(2E)-3-{imino[4-(methylamino)phenyl]oxo-λ^6-sulfanyl}prop-2-en-1-yl]-2-oxo-1,2,5,6,7,8-hexahydroquinoline-3-carboxamide], the pIC50 in experiment [1] and in experiment [2] was ≥ 6.00 in each case.

As to `N#Cc1cc(S(=N)(=O)/C=C/CNC(=O)c2cc3c([nH]c2=O)CCCC3)ccc1N1CCOCC1` (stereo not drawn) [Example 175, N-[(2E)-3-{[3-cyano-4-(morpholin-4-yl)phenyl](imino)oxo-λ^6-sulfanyl}prop-2-en-1-yl]-2-oxo-1,2,5,6,7,8-hexahydroquinoline-3-carboxamide], the negative-log IC50 (pIC50) in experiment [1] is ≥ 7.00; in experiment [2] it was ≥ 5.00.

For the compound `CN1CCCc2cc(S(=N)(=O)/C=C/CNC(=O)c3cc4c([nH]c3=O)CCCC4)ccc21` (stereo not drawn) [Example 177, N-[(2E)-3-[imino(1-methyl-1,2,3,4-tetrahydroquinolin-6-yl)oxo-A*-sulfanyl]prop-2-en-1-yl]-2-oxo-1,2,5,6,7,8-hexahydroquinoline-3-carboxamide], the negative-log IC50 (pIC50) in experiment [1] is ≥ 7.00; in experiment [2], ≥ 6.00.

Take `COc1ccc(S(=N)(=O)/C=C/CNC(=O)c2cc3c([nH]c2=O)CCN(C(=O)OC2CCC(F)(F)CC2)C3)cc1F` (stereo not drawn) [Example 183, 4,4-difluorocyclohexyl 3-{[(2E)-3-[(3-fluoro-4-methoxyphenyl) (imino)oxo-λ^6-sulfanyl]prop-2-en-1-yl]carbamoyl}-2-oxo-1,2,5,6,7,8-hexahydro-1,6-naphthyridine-6-carboxylate]: the negative-log IC50 (pIC50) in experiment [1] is ≥ 7.00; in experiment [2], ≥ 5.00.

`COc1ccc(S(=N)(=O)/C=C/CNC(=O)c2cc3c([nH]c2=O)CCN(C(=O)OC2CCCCC2)C3)cc1F` (stereo not drawn) [Example 184, cyclohexyl 3-{[(2E)-3-[(3-fluoro-4-methoxyphenyl)(imino)oxo-λ^6-sulfanyl]prop-2-en-1-yl]carbamoyl}-2-oxo-1,2,5,6,7,8-hexahydro-1,6-naphthyridine-6-carboxylate]: the figures for the pIC50 in experiment [1] and in experiment [2] were ≥ 7.00 and ≥ 6.00, respectively.

Regarding `COc1ccc(S(=N)(=O)/C=C/CNC(=O)c2cc3c([nH]c2=O)CCN(CC2CC2)C3)cc1F` (stereo not drawn) [Example 185, 6-(cyclopropylmethyl)-N-[(2E)-3-[(3-fluoro-4-methoxyphenyl) (imino)oxo-λ^6-sulfanyl]prop-2-en-1-yl]-2-oxo-1,2,5,6,7,8-hexahydro-1,6-naphthyridine-3-carboxamide], the pIC50 in experiment [1] was ≥ 5.00; in experiment [2], ≥ 4.00.

On to `COc1ccc(S(=N)(=O)/C=C/CNC(=O)c2ccc[nH]c2=O)cc1F` (stereo not drawn) [Example 186, N-[(2E)-3-[(3-fluoro-4-methoxyphenyl)(imino)oxo-λ^6-sulfanyl]prop-2-en-1-yl]-2-oxo-1,2-dihydropyridine-3-carboxamide], for which the pIC50 in experiment [1] was ≥ 6.00; in experiment [2], ≥ 5.00.
